# US20050282242A1, “Screening assays for antimicrobial agents” (priority 2004, published 2005)
# Read-outs that look alike come from different tables or passages of the source.
# Legend:
# [1] = tested on: S. aureus Smith mutant containing the L466S mutation in RpoB; assay: Mouse septicemia model, S. aureus Smith RpoB L466S; format: in vivo; conditions: 1.1 × 10^7 CFU/mouse, three days
# Description: (§1) Antimicrobial compounds may also be screened in vivo using a mouse septicemia model. In one particular example, mice were inoculated with an S. aureus Smith strain (Weiss) encoding a mutated microbial polypeptide (e.g., a mutated RpoB). Compounds were administered either IV or orally 30 minutes following inoculation, and observations was continued for three days. Compounds that promoted the survival of inoculated mice were identified as being compounds that are effective against antibiotic-resistant forms of S. aureus.
# (§2) This was accounted for by the increased MIC against these mutant strains compared with the wild-type strain (MICs of 2 μg/ml and 0.004-0.008 μg/ml, respectively).
# [2] = tested on: S. aureus Smith containing the RpoB H481Y alteration; assay: Mouse septicemia model, S. aureus Smith RpoB H481Y; format: in vivo; conditions: for Survival (n = 5): mouse, 1.1 × 10^7 CFU/mouse, three days
# Description: as §1, §2
# [3] = tested on: S. aureus Smith mutant containing the S486L mutation in RpoB; assay: Mouse septicemia model, S. aureus Smith RpoB S486L; format: in vivo; conditions: 1.4 × 10^7 CFU/mouse, three days
# Description: as §1, §2
# [4] = tested on: S. aureus RpoB mutant H481N; assay: MIC, S. aureus RpoB H481N mutant; format: cell-based; conditions: Staphylococcus aureus; RpoB mutation H481N; strain backgrounds 1, 4
# Excerpt: (§3) S. aureus is one of the most frequently encountered Gram-positive pathogens. Drug resistance-conferring mutations typically occur within the β subunit of RNA polymerase (RpoB mutations), in the rifampin-binding site. Mutants of S. aureus were isolated by inoculating a culture of S. aureus ATCC strain 29213 (standard susceptibility testing strain) into medium containing rifampin or rifalazil; by inoculating S. aureus ATCC strain 29213 into medium containing chemical derivatives of rifamycin (NCEs); by inoculating S. aureus Smith, a variant optimally adapted to colonizing and causing disease in the mouse septicemia model, into medium containing rifampin; and by using the Ian Chopra collection, the parent strain of which is S. aureus 8325-4 and described previously by Oliva et al. (Antimicrob. Agents Chemother. 45:532-9, 2001). […]
# (§4) Having identified these mutants, the minimum inhibitory concentrations (MIC) of a number of rifamycin derivatives were determined in microtiter trays by inoculating 1-8×10^4 microorganisms in 100 μl of Mueller-Hinton Broth (cation adjusted) containing the indicated compound (Table 3) (National Committee for Clinical Laboratory Standards, Methods for Dilution Antimicrobial Susceptibility Tests for Bacteria That Grow Aerobically-Fourth Edition: Approved Standard M7-A4. NCCLS, Villanova, Pa., 1997). […]
# [5] = tested on: S. aureus RpoB mutant H481D; assay: MIC, S. aureus RpoB H481D mutant; format: cell-based; conditions: Staphylococcus aureus; RpoB mutation H481D; strain backgrounds 1, 4
# Excerpt: as §3, §4
# [6] = tested on: S. aureus 29213; assay: Mutant score test (resistance development on agar); format: cell-based; conditions: 10^9 cells of S. aureus 29213 on agar plate with 1 μg/ml compound
# Description: A further confirmation of the validity of MIC testing of the mutant panel was provided by our mutant score test. Using this strategy, compounds were individually tested for resistance development by inoculating 10^9 cells of S. aureus 29213, a standard susceptibility strain, onto a large agar plate (150 mm) containing Mueller Hinton Agar as well as 1 μg/ml of the test compound. The presence of rifalazil or rifampin in these plates generally allowed for the growth of ˜50 colonies, all colonies representing a mutant sub-population or populations in the culture. […] The MICs of NCEs on agar plates were lower than MICs determined by growth in liquid broth. […] This correlation provided additional confidence in the value and ranking of compounds by MIC testing of the mutant panel, as compounds having a score of 2 have tracked with strong activity in MIC testing against resistant strains, as indicated in Table 3.
# [7] = tested on: Wild-type parent strains (S. aureus 29213, Smith, W59536, 8325-4); assay: MIC, wild-type parent S. aureus strains; format: cell-based
# Excerpt: S. aureus is one of the most frequently encountered Gram-positive pathogens. Drug resistance-conferring mutations typically occur within the β subunit of RNA polymerase (RpoB mutations), in the rifampin-binding site. Mutants of S. aureus were isolated by inoculating a culture of S. aureus ATCC strain 29213 (standard susceptibility testing strain) into medium containing rifampin or rifalazil; by inoculating S. aureus ATCC strain 29213 into medium containing chemical derivatives of rifamycin (NCEs); by inoculating S. aureus Smith, a variant optimally adapted to colonizing and causing disease in the mouse septicemia model, into medium containing rifampin; and by using the Ian Chopra collection, the parent strain of which is S. aureus 8325-4 and described previously by Oliva et al. (Antimicrob. Agents Chemother. 45:532-9, 2001). Mutants resistant to rifampin, rifalazil, or NCEs were selected either on drug-containing plates or in liquid culture.
# Having identified these mutants, the minimum inhibitory concentrations (MIC) of a number of rifamycin derivatives were determined in microtiter trays by inoculating 1-8×10^4 microorganisms in 100 μl of Mueller-Hinton Broth (cation adjusted) containing the indicated compound (Table 3) (National Committee for Clinical Laboratory Standards, Methods for Dilution Antimicrobial Susceptibility Tests for Bacteria That Grow Aerobically-Fourth Edition: Approved Standard M7-A4. NCCLS, Villanova, Pa., 1997). These cultures were incubated for 16-20 hours at 35° C. Based on our results, the most important mutants (conferring the strongest resistance) were identified for more extensive testing of NCEs. These mutants were H481Y, Q468K, S486L, D471Y, S464P, A477D, and H481D. […] An exception to the uniformity of the measure of resistance is provided by the mutants D471Y and S464P, which together have lower MICs for some of the compounds compared to the rest. […]
# [8] = tested on: S. aureus RpoB mutant R484C; assay: MIC, S. aureus RpoB R484C mutant; format: cell-based; conditions: Staphylococcus aureus; RpoB mutation R484C; strain background 3
# Excerpt: as §3, §4
# [9] = tested on: S. aureus RpoB mutant Q137L; assay: MIC, S. aureus RpoB Q137L mutant; format: cell-based; conditions: Staphylococcus aureus; RpoB mutation Q137L; strain backgrounds 1, 4
# Excerpt: as §3, §4
# [10] = tested on: S. aureus RpoB mutant A477V; assay: MIC, S. aureus RpoB A477V mutant; format: cell-based; conditions: Staphylococcus aureus; RpoB mutation A477V; strain backgrounds 1, 2
# Excerpt: as §3, §4
# [11] = tested on: S. aureus RpoB mutant D471G; assay: MIC, S. aureus RpoB D471G mutant; format: cell-based; conditions: Staphylococcus aureus; RpoB mutation D471G; strain backgrounds 1, 2
# Excerpt: as §3, §4
# [12] = tested on: S. aureus RpoB mutant S486L; assay: MIC, S. aureus RpoB S486L mutant; format: cell-based; conditions: Staphylococcus aureus; RpoB mutation S486L; strain backgrounds 1, 2, 4
# Excerpt: as §3, §4
# [13] = tested on: S. aureus RpoB mutant H481Y; assay: MIC, S. aureus RpoB H481Y mutant; format: cell-based; conditions: Staphylococcus aureus; RpoB mutation H481Y; strain backgrounds 1, 2, 3
# Excerpt: as §3, §4
# [14] = tested on: S. aureus RpoB mutant I527P; assay: MIC, S. aureus RpoB I527P mutant; format: cell-based; conditions: Staphylococcus aureus; RpoB mutation I527P; strain background 1
# Excerpt: as §3, §4
# [15] = tested on: S. aureus RpoB mutant H481R; assay: MIC, S. aureus RpoB H481R mutant; format: cell-based; conditions: Staphylococcus aureus; RpoB mutation H481R; strain background 3
# Excerpt: as §3, §4
# [16] = tested on: S. aureus RpoB mutant I527M; assay: MIC, S. aureus RpoB I527M mutant; format: cell-based; conditions: Staphylococcus aureus; RpoB mutation I527M; strain background 1
# Excerpt: as §3, §4
# [17] = tested on: S. aureus RpoB mutant Q468K; assay: MIC, S. aureus RpoB Q468K mutant; format: cell-based; conditions: Staphylococcus aureus; RpoB mutation Q468K; strain background 1
# Excerpt: as §3, §4
# [18] = tested on: S. aureus RpoB mutant R484S; assay: MIC, S. aureus RpoB R484S mutant; format: cell-based; conditions: Staphylococcus aureus; RpoB mutation R484S; strain background 1
# Excerpt: as §3, §4
# [19] = tested on: S. aureus RpoB mutant L466S; assay: MIC, S. aureus RpoB L466S mutant; format: cell-based; conditions: Staphylococcus aureus; RpoB mutation L466S; strain backgrounds 1, 2, 4
# Excerpt: as §3, §4
# [20] = tested on: S. aureus RpoB mutant D471Y; assay: MIC, S. aureus RpoB D471Y mutant; format: cell-based; conditions: Staphylococcus aureus; RpoB mutation D471Y; strain backgrounds 1, 2, 4
# Excerpt: as §3, §4
# [21] = tested on: S. aureus RpoB mutant R484H; assay: MIC, S. aureus RpoB R484H mutant; format: cell-based; conditions: Staphylococcus aureus; RpoB mutation R484H; strain backgrounds 1, 3
# Excerpt: as §3, §4
# [22] = tested on: S. aureus RpoB mutant S464P; assay: MIC, S. aureus RpoB S464P mutant; format: cell-based; conditions: Staphylococcus aureus; RpoB mutation S464P; strain backgrounds 1, 2, 4
# Excerpt: as §3, §4
# [23] = tested on: S. aureus RpoB mutant A477D; assay: MIC, S. aureus RpoB A477D mutant; format: cell-based; conditions: Staphylococcus aureus; RpoB mutation A477D; strain backgrounds 1, 4
# Excerpt: as §3, §4
# [24] = tested on: S. aureus RpoB mutant D471E; assay: MIC, S. aureus RpoB D471E mutant; format: cell-based; conditions: Staphylococcus aureus; RpoB mutation D471E; strain background 4
# Excerpt: as §3, §4
# [25] = tested on: S. aureus RpoB mutant D471V; assay: MIC, S. aureus RpoB D471V mutant; format: cell-based; conditions: Staphylococcus aureus; RpoB mutation D471V; strain background 3
# Excerpt: as §3, §4
# [26] = tested on: S. aureus RpoB mutant Q468R; assay: MIC, S. aureus RpoB Q468R mutant; format: cell-based; conditions: Staphylococcus aureus; RpoB mutation Q468R; strain background 1
# Excerpt: as §3, §4
SMILES,Survival (n = 5) ([1]; IV 6.0 mg/kg),Survival (n = 5) ([2]; IV 6.0 mg/kg),Survival (n = 5) ([3]; IV 6.0 mg/kg),MIC [4] [µg/mL],MIC [5] [µg/mL],growth of mutant colonies on plate [6] [colonies],MIC [8] [µg/mL],MIC [9] [µg/mL],MIC [10] [µg/mL],MIC [11] [µg/mL],MIC [12] [µg/mL],MIC [13] [µg/mL],MIC [14] [µg/mL],MIC [15] [µg/mL],MIC [16] [µg/mL],MIC [17] [µg/mL],MIC [18] [µg/mL],MIC [19] [µg/mL],MIC [20] [µg/mL],MIC [21] [µg/mL],further results
O=C(O)c1cn(C2CC2)c2cc(N3CCNCC3)c(F)cc2c1=O [Ciprofloxacin],5,4,5,,,,,,,,,,,,,,,,,,Survival (n = 5) ([1]; IV 0.6 mg/kg): 1; Survival (n = 5) ([1]; IV 2.0 mg/kg): 4; Survival (n = 5) ([2]; IV 0.6 mg/kg): 2; Survival (n = 5) ([2]; IV 2.0 mg/kg): 5; Survival (n = 5) ([3]; IV 0.6 mg/kg): 1; Survival (n = 5) ([3]; IV 2.0 mg/kg): 3
"CO[C@H]1/C=C/O[C@@]2(C)Oc3c(C)c(O)c4c(=O)c(c5oc6cc(N7CCN(CC(C)C)CC7)cc(O)c6nc-5c4c3C2=O)NC(=O)/C(C)=C\C=C\[C@H](C)[C@H](O)[C@@H](C)[C@@H](O)[C@@H](C)[C@H](OC(C)=O)[C@@H]1C [Rfz, rifalazil]",,,,0.125,> 8,~50,0.5,< 0.031,0.063,> 8,> 8,> 8,1,> 8,0.063,> 8,0.5,0.016,0.25,8,"MIC ([7]; Mutation None: wild-type parent strains): 0.015 µg/mL; MIC ([7]; Staphylococcus aureus, strain not stated, matches wild-type value of Table 2, read-out: MIC): 0.015 µg/mL; MIC [22]: 1 µg/mL; MIC [23]: 2 to 4 µg/mL; MIC [24]: < 0.031 µg/mL; MIC [25]: 2 µg/mL; MIC [26]: > 8 µg/mL"
"CO[C@H]1/C=C/O[C@@]2(C)Oc3c(C)c(O)c4c(O)c(c(/C=N/N5CCN(C)CC5)c(O)c4c3C2=O)NC(=O)/C(C)=C\C=C\[C@H](C)[C@H](O)[C@@H](C)[C@@H](O)[C@@H](C)[C@H](OC(C)=O)[C@@H]1C [Rifampicin, rifampin]",0,0,0,2,> 8,~50,2,0.25,1,> 8,> 8,> 8,4,> 8,0.25,> 8,8,0.25,1,> 8,"Survival (n = 5) ([1]; IV 20.0 mg/kg): 0; MIC ([7]; Staphylococcus aureus, Mutation None: wild-type parent strains, read-out: MIC): 0.015 µg/mL; efficacy against mutant strains in vivo ([2]; mouse septicemia model, mutant strains in general): failed to be effective; Survival (n = 5) ([2]; IV 20.0 mg/kg): 0; Survival (n = 5) ([2]; oral 200.0 mg/kg): 0; MIC [22]: > 8 µg/mL; MIC [23]: > 8 µg/mL; Survival (n = 5) ([3]; IV 20.0 mg/kg): 1; MIC [24]: 0.25 µg/mL; MIC [25]: > 8 µg/mL; MIC [26]: > 8 µg/mL"
